{"source": "patent US20190374506A1", "about": "“COMPOSITIONS AND METHODS FOR TREATING CANCER” (BETH ISREAL DEACONESS MEDICAL CENTER, priority 2016, published 2019)", "key": {"[1]": {"test_system": "Wwp1^+/+ and Wwp1^−/− MEFs", "test": "Growth curves of Wwp1+/+ and Wwp1-/- MEFs treated with I3C", "format": "cell-based, mouse", "settings": "100 μM I3C", "method": "FIG. 10C provides growth curves of Wwp1^+/+ and Wwp1^−/− MEFs treated with 100 μM I3C. Representative pictures of the cells at Day 3 are shown below. Whether targeting WWP1/NEDD4-1, thereby enhancing PTEN dimerization and function, could offer a unique opportunity to treat MYC-driven cancers was investigated. […] As there is no small pharmacological inhibitor currently available to suppress/inhibit WWP1 activity, Indole-3-Carbinol (I3C), a potential WWP1 inhibitor, which suppresses the WWP1 activity through binding to its HECT domain, was used. First, to assess the on-target effects of I3C towards WWP1, Wwp1^−/− MEFs were used. […] Additionally, two independent PTEN stably knocked-down cells were generated. […] At 8 hours post-transfection, cells were trypsinized, resuspended, and seeded in three separate 12-well plates at a final density of 20,000/well. Starting the following day (d0), one plate per day was washed once with PBS, fixed in 10% formalin solution for 10 minutes at room temperature, and kept in PBS at 4° C. On the last day, all of the wells were stained with crystal violet. After lysis with 10% acetic acid, optical density was read at 595 nm."}, "[2]": {"test_system": "DU145 cells", "test": "Growth curves, colorimetric MTT assay, DU145 cells", "format": "cell-based, human", "settings": "various doses of I3C for 5 Days", "from_the_text": "(§1) FIG. 11C provides growth curves of DU145 (PTEN competent) or PC3 cells (PTEN null) treated with various doses of I3C for 5 Days, and then assayed with colorimetric MTT assay (three experiments). Whether targeting WWP1/NEDD4-1, thereby enhancing PTEN dimerization and function, could offer a unique opportunity to treat MYC-driven cancers was investigated. […] As there is no small pharmacological inhibitor currently available to suppress/inhibit WWP1 activity, Indole-3-Carbinol (I3C), a potential WWP1 inhibitor, which suppresses the WWP1 activity through binding to its HECT domain, was used. First, to assess the on-target effects of I3C towards WWP1, Wwp1^−/− MEFs were used. […] Additionally, two independent PTEN stably knocked-down cells were generated."}, "[3]": {"test_system": "PC3 cells (PTEN-null)", "test": "Growth curves, colorimetric MTT assay, PC3 cells", "format": "cell-based, human", "settings": "various doses of I3C for 5 Days", "from_the_text": "as §1"}, "[4]": {"test_system": "DU145 cells with PTEN depletion", "test": "Growth curves, MTT assay, DU145 cells with stable PTEN shRNA knockdown", "format": "cell-based, human", "settings": "two independent PTEN shRNAs, various doses of I3C for 5 Days", "from_the_text": "as §1, with “11D” for “11C”, “cells, stably expressing vector control” for “(PTEN competent)”, “two independent shRNAs,” for “PC3 cells (PTEN null)”"}, "[5]": {"test_system": "Hi-Myc mouse prostates", "test": "Preclinical study of I3C in Hi-Myc mice (prostate cancer)", "format": "in vivo", "method": "FIGS. 12A and 12B show hematoxylin and eosin (H&E) staining of mouse prostate and gross anatomy of representative Hi-Myc urogenital tract. Quantification of percentage of normal epithelium in Hi-Myc mice treated with vehicle or I3C at 6 months as shown in (A) (right). The mice at 5 months of age were treated I.P. with I3C (20 mg/kg), three times a week for 1 month starting on day zero. (n=4 per genotype) scale bar, […].\nFIG. 12C provides a Western blot analysis of dorsal lateral prostate (DLP) lysates from Hi-Myc mice as in (A).\nThe boxed areas are enlarged three fold to show the subcellular localization of PTEN on the right. Arrow indicates the PTEN plasma membrane localization. Bar, 50 μm.\nTo examine the functional relevance of the WWP1/NEDD4-1/PTEN crosstalk in vivo, preclinical studies with I3C in Hi-Myc mice were performed. The expression of Hi-Myc in mouse prostate results in complete penetrance of prostatic intraepithelial neoplasia (PIN) and progresses into invasive adenocarcinoma within 5 to 12 months of age. To this end, cohorts of Hi-Myc mice at 5 months of age were treated with either the vehicle or I3C for one month.\nThe Beth Israel Deaconess Medical Center IACUC Committee on Animal Research approved all animal experiments. The transgenic mice used in these studies (Hi-Myc-mice), in which the prostate specific expression of human c-Myc is driven by the rat probasin promoter with two androgen response elements, were obtained from the Mouse Repository of National Cancer Institute. 9 mice per genotype were randomly chosen and used to examine the tumour at the indicated age. Wwp1−/−mice and its paired Wwp1+/+ mice (on a C57/BL6 background) were obtained from Dr. L. Matesic (University of South Carolina, Columbia, SC, USA) (Shu et al., 2013). The pathologist determined the histological grade blindly.\nThe mice were treated I.P. with I3C dissolved in 5% DMSO (20 mg/kg), three times a week for […] starting on day zero. I.P. administration allows I3C to achieve maximal systemic exposure."}, "[6]": {"biological_target": "NEDD4-1", "settings": "previous study (Aronchik et al., 2014); read-out: calculated equilibrium dissociation constant (Kd) with NEDD4-1; cited from earlier work"}, "[7]": {"settings": "Hi-Myc mice, I3C 20 mg/kg I.P., western blot"}}, "data": [{"smiles": "OCc1c[nH]c2ccccc12", "note": "[I3C, indole-3-carbinol]", "values": [{"measurement": "sensitivity of Wwp1−/− cells to I3C treatment compared to Wwp1+/+ cells", "setting": "[1]", "result": "more resistant"}, {"measurement": "cell growth", "setting": "[2]", "result": "drastic inhibition of cell growth"}, {"measurement": "cell growth", "setting": "[3]", "result": "only modestly suppressed cell growth"}, {"measurement": "sensitivity of cells with PTEN depletion compared to control cells", "setting": "[4]", "result": "exhibited resistance"}, {"measurement": "tumor size, DLP and AP", "setting": "[5]; Hi-Myc mice 5 months of age, I3C 20 mg/kg I.P. three times a week for 1 month, dorsal lateral and anterior prostate", "result": "significantly reduced tumor size"}, {"measurement": "tumor size, VP", "setting": "[5]; Hi-Myc mice, I3C 20 mg/kg I.P. three times a week for 1 month, ventral prostate", "result": "less prominently"}, {"measurement": "PTEN plasma membrane localization in prostate epithelial cells (IHC, DLP tissue)", "setting": "[5]; Hi-Myc mice, I3C 20 mg/kg I.P., compared to vehicle", "result": "induced intense PTEN plasma membrane accumulation"}, {"measurement": "histology of APs", "setting": "[5]; Hi-Myc mice, I3C 20 mg/kg I.P., anterior prostate, H&E", "result": "completely disease-free"}, {"measurement": "histology of DLPs: penetrance of invasive carcinoma", "setting": "[5]; Hi-Myc mice, I3C 20 mg/kg I.P., dorsal lateral prostate, H&E", "result": "significantly lower penetrance"}, {"measurement": "AKT activation in prostate lysates, AP and DLP", "setting": "[5]; [7]", "result": "robustly inhibited AKT activation"}, {"measurement": "PTEN protein level in prostate lysates", "setting": "[5]; [7]", "result": "without affecting PTEN protein level"}, {"measurement": "Kd", "setting": "[6]", "result": "~88.1", "unit": "µM"}]}]}
